According to patent publication US6376675B2, “Muscarinic receptor agonists” (The University of Toledo, priority 1999, dated 2002):
Structures can show the parent of a compound that is named as a salt.

What was measured:
M1 muscarinic receptors = biological target: T1, M1 muscarinic receptors (Homo sapiens, UniProt P11229); test: Muscarinic receptor binding at M1 receptors; settings: for affinity for muscarinic receptors: as compared to the parent compound xanomeline; for Ki: Table 3
T1 construct: expressed in transfected cells; host or cells: A9 L cells
T1 sequence (P11229 1-460): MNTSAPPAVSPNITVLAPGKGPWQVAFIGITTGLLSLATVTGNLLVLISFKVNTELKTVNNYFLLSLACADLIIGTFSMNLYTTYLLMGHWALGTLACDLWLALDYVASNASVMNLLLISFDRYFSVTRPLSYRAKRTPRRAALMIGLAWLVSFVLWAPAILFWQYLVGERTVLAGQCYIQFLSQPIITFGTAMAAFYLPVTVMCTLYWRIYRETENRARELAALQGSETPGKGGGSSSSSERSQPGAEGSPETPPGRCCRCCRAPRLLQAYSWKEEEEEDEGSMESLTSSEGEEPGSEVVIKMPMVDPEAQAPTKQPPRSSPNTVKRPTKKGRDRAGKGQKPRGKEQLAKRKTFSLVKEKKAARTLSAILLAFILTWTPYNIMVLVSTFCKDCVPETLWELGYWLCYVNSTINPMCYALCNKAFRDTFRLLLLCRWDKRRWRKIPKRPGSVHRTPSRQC
Description: (§1) The compounds of Formula III incorporate hydrogen bonding elements as ester isosteres (i.e., alcohols, […], 1,2,5-thiadiazoles) at the end of an alkyl or alkyloxy linking group as shown below. The compounds lack a second tetrahydropyridine moiety.

[1] = biological target: T2, M1 muscarinic receptors expressed in A9 L cells (Homo sapiens, UniProt P11229); test: Phosphoinositide (PI) metabolism at M1 muscarinic receptors expressed in A9 L cells; format: cell-based; settings: for EC50 / Phosphoinositide metabolism Smax: A9 L cells, Table 3
T2 construct: expressed in transfected cells; host or cells: A9 L cells
T2 sequence (P11229 1-460): T1 sequence (P11229 1-460)
Description: as §1

| Compound | melting point [°C] | Ki (M1 muscarinic receptors) [nM] | EC50 [1] [nM] | Phosphoinositide metabolism Smax [1] [%] | further results |
| --- | --- | --- | --- | --- | --- |
| CN1CCC=C(c2nsnc2OCCCCCCCCCCCCO)C1 (as salt: hydrochloride) [CDD-0297-A, 12-[3-(1-Methyl-1,2,5,6-tetrahydropyrid-3-yl)-1,2,5-thiadiazol-4-yloxy]-1-dodecanolhydrochloride] | 97 to 98 |  |  |  |  |
| CC(=O)OCCCCCCCCCCCCOc1nsnc1C1=CCCN(C)C1 (as salt: hydrochloride) [CDD-0299-A, 12-[3-(1-Methyl-1,2,5,6-tetrahydropyrid-3-yl)-1,2,5-thiadiazol-4-yloxy]-1-dodecyl acetate hydrochloride] | 85 to 86 |  |  |  |  |
| CCOCCOCCOCCOCCOc1nsnc1C1=CCCN(C)C1 (as salt: hydrochloride) [CDD-0301-A, Tetra(ethylene glycol) ethyl [3-1-methyl-1,2,5,6-tetrahydropyrid-3-yl)-1,2,5-thiadiazol-4-yl] ether hydrochloride] | 64.5 to 66 |  |  |  |  |
| CN1CCC=C(c2nsnc2OCCCCCCCCCCCCOc2nsnc2C2=CCCN(C)C2)C1 [(CH2)12, 1,12-bis-[3-(1-methyl-1,2,5,6-tetrahydropyrid-3-yl)-1,2,5-thiadiazol-4-yloxy]-dodecane] |  |  |  |  | affinity for muscarinic receptors (M1 muscarinic receptors): very high affinity |
| CN1CCC=C(c2nsnc2OCCOCCOCCOCCOc2nsnc2C2=CCCN(C)C2)C1 [(CH2CH2)4O3, 2,2′-bis-{[3-(1-methyl-1,2,5,6-tetrahydropyrid-3-yl)-1,2,5-thiadiazol-4-yloxy]ethyloxy}-diethyl ether] |  |  |  |  | affinity for muscarinic receptors (M1 muscarinic receptors): very high affinity; Smax ([1]; PI metabolism, full dose-response curves, Table 2): 250 ± 36% |
| CN1CCC=C(c2nsnc2OCCCCCCCCCCCCO)C1 [CDD-0297-A, 12-[3-(1-Methyl-1,2,5,6-tetrahydropyrid-3-yl)-1,2,5-thiadiazol-4-yloxy]-1-dodecanolhydrochloride] |  | 16 ± 3.1 | 2600 | 250 ± 28 |  |
| CC(=O)OCCCCCCCCCCCCOc1nsnc1C1=CCCN(C)C1 [CDD-0299-A, 12-[3-(1-Methyl-1,2,5,6-tetrahydropyrid-3-yl)-1,2,5-thiadiazol-4-yloxy]-1-dodecyl acetate hydrochloride] |  | 16 ± 13 | 3400 | 280 ± 17 |  |
| CN1CCC=C(c2nsnc2OCCOCCOCCOCCO)C1 [CDD-0300-A, Tetra(ethylene glycol) mono[3-(1-methyl-1,2,5,6-tetrahydropyrid-3-yl)-1,2,5-thiadiazol-4-yl] ether hydrochloride] |  | 150 ± 42 | 710 | 240 ± 64 |  |

The next lines start with results.

| melting point [°C] | Ki (M1 muscarinic receptors) [nM] | EC50 [1] [nM] | Phosphoinositide metabolism Smax [1] [%] | Compound | further results |
| --- | --- | --- | --- | --- | --- |
| 55 to 55.5 |  |  |  | CC(=O)OCCOCCOCCOCCOc1nsnc1C1=CCCN(C)C1 (as salt: hydrochloride) [CDD-0303-A, Tetra(ethylene glycol) [3-(1-methyl-1,2,5,6-tetrahydropyrid-3-yl)-1,2,5-thiadiazol-4-yl] ether acetate hydrochloride] |  |
|  | 570 ± 220 | 29000 | 420 ± 220 | CCOCCOCCOCCOCCOc1nsnc1C1=CCCN(C)C1 [CDD-0301-A, Tetra(ethylene glycol) ethyl [3-1-methyl-1,2,5,6-tetrahydropyrid-3-yl)-1,2,5-thiadiazol-4-yl] ether hydrochloride] |  |
|  | 280 ± 130 |  |  | CC(=O)OCCOCCOCCOCCOc1nsnc1C1=CCCN(C)C1 [CDD-0303-A, Tetra(ethylene glycol) [3-(1-methyl-1,2,5,6-tetrahydropyrid-3-yl)-1,2,5-thiadiazol-4-yl] ether acetate hydrochloride] |  |
|  | 38 ± 23 | 64 | 600 ± 56 | COc1nsnc1OCCOCCOCCOCCOc1nsnc1C1=CCCN(C)C1 [CDD-0304-A, Tetra(ethyleneglycol)(4-methoxy-1,2,5-thiadiazol-3-yl)[3-(1-methyl-1,2,5,6-tetrahydropyrid-3-yl)-1,2,5-thiazdiazol-4-yl] ether hydrochloride] |  |
